These results are taken from PubChem BioAssay (NCI).

Test systems include NCI/ADR-RES ovarian; A498 renal; HL-60(TB) leukemia; MOLT-4 leukemia; SF-295 CNS; MCF7 breast; U251 CNS; IGROV1 ovarian; COLO 205 colon; PC-3 prostate; HOP-92 NSCLC.
Holding throughout (experiment): NCI tumour cell line growth inhibition, 48 h

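All cell lines were grown in 96-well plates and treated with compound for 48 hours. Here, GI50 denotes the concentration required for 50% inhibition of growth. TGI is the concentration that stops growth completely.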 A value given as a limit tells only on which side of the number the result lay.

Turning to `CC(C)(C)OC(=O)NCC(=O)NC1C/C(=N\O)c2sccc21` (centres undefined), the TGI in the assay with NCI/ADR-RES ovarian, with A498 renal, in the assay with HL-60(TB) leukemia, in the assay on MOLT-4 leukemia, in the assay with SF-295 CNS and in the assay with MCF7 breast was more than 100 µM in each case. Moreover, the TGI in the assay with U251 CNS, in the assay on IGROV1 ovarian, with COLO 205 colon and in the assay on PC-3 prostate was more than 100 µM in each case.
Turning to `CC(=O)c1ccc(N2CCN(C3=CC(=O)c4c(O)ccc(O)c4C3=O)CC2)cc1`, the TGI is more than 100 µM in the assay with NCI/ADR-RES ovarian; 79.2 µM in the assay with HOP-92 NSCLC; more than 100 µM in the assay with A498 renal; 38.6 µM in the assay with HL-60(TB) leukemia; more than 100 µM in the assay with MOLT-4 leukemia; more than 100 µM in the assay on SF-295 CNS. Besides, the TGI with MCF7 breast is more than 100 µM; with U251 CNS it was 50.3 µM; in the assay on IGROV1 ovarian, more than 100 µM; in the assay on COLO 205 colon it was more than 100 µM; in the assay with PC-3 prostate, more than 100 µM.
For the molecule `COc1ccc2c(c1)CC1Cc3ccccc3CCN1C2` (centres undefined), the TGI with NCI/ADR-RES ovarian, in the assay on HOP-92 NSCLC, in the assay on HL-60(TB) leukemia, in the assay on MOLT-4 leukemia, in the assay with SF-295 CNS and with MCF7 breast was more than 100 µM each time. Further, the TGI in the assay on U251 CNS, in the assay on IGROV1 ovarian, in the assay with COLO 205 colon and in the assay with PC-3 prostate was more than 100 µM in each case.
For the molecule `CCNc1ncnc2c1nnn2CC`, the TGI in the assay on NCI/ADR-RES ovarian, in the assay on HOP-92 NSCLC, with A498 renal, in the assay with HL-60(TB) leukemia, with MOLT-4 leukemia and with SF-295 CNS was more than 100 µM each time. The TGI in the assay on MCF7 breast, in the assay on U251 CNS, in the assay with IGROV1 ovarian, in the assay with COLO 205 colon and with PC-3 prostate was more than 100 µM each time.
Regarding `CN(/N=N/c1nc[nH]c1C(N)=O)C1CCCCC1`, the TGI with HOP-92 NSCLC, with A498 renal, in the assay with HL-60(TB) leukemia, with MOLT-4 leukemia, with SF-295 CNS and in the assay on U251 CNS was more than 100 µM throughout. For the same molecule, the TGI in the assay on IGROV1 ovarian and in the assay on COLO 205 colon was more than 100 µM throughout.
On to `CNC(=S)N/N=C(\C)c1nc2ncccc2[nH]1`, for which the TGI in the assay on NCI/ADR-RES ovarian was 29.7 µM; in the assay on HOP-92 NSCLC it was more than 100 µM; in the assay on A498 renal, more than 100 µM; with HL-60(TB) leukemia it was 52.8 µM; in the assay on MOLT-4 leukemia it was more than 100 µM; in the assay with SF-295 CNS, more than 100 µM. Further, the TGI in the assay with MCF7 breast, in the assay with U251 CNS, in the assay with IGROV1 ovarian, in the assay with COLO 205 colon and in the assay with PC-3 prostate was more than 100 µM in each case.
With `CCC(=O)NC(OCC1(CC)COC1)(C(F)(F)F)C(F)(F)F`, the TGI with A498 renal, in the assay with HL-60(TB) leukemia, in the assay on MOLT-4 leukemia, in the assay with MCF7 breast and with U251 CNS was more than 100 µM each time.
As for `COc1ccc2c(c1OC)C(=O)O[C@@H]2[C@H]1c2cc3c(cc2CCN1C)OCO3`, the TGI with NCI/ADR-RES ovarian, with HOP-92 NSCLC, in the assay with A498 renal, with HL-60(TB) leukemia, with MOLT-4 leukemia and with SF-295 CNS was more than 100 µM in each case. The TGI in the assay with MCF7 breast, with U251 CNS, in the assay on IGROV1 ovarian, in the assay with COLO 205 colon and with PC-3 prostate was more than 100 µM in each case.
Take `COC(=O)C1=C(C)N(NC(=O)c2ccccc2)C2(O)CCCC(=O)C12C` (centres undefined): the TGI in the assay on HOP-92 NSCLC, with A498 renal, in the assay with SF-295 CNS, in the assay on U251 CNS, in the assay with IGROV1 ovarian and in the assay with COLO 205 colon was more than 100 µM throughout.
Consider `COc1cc(OC)cc(-c2n/c(=C\c3c(O)[nH]c4ccc(Cl)cc34)cc3c2=Nc2ccccc2-3)c1`, for which the GI50 is 3.03 µM with NCI/ADR-RES ovarian; 30.9 µM in the assay on A498 renal; 2.18 µM in the assay on MOLT-4 leukemia; 2.32 µM in the assay on SF-295 CNS; 1.82 µM in the assay on MCF7 breast; 1.75 µM with U251 CNS. The values for the GI50 in the assay with IGROV1 ovarian and in the assay with PC-3 prostate were 3.46 µM and 5.55 µM, respectively. Further, the TGI was 10.8 µM in the assay on NCI/ADR-RES ovarian; more than 100 µM in the assay with A498 renal; 4.74 µM in the assay with MOLT-4 leukemia; 6.11 µM in the assay with SF-295 CNS; 4.66 µM in the assay on MCF7 breast; 3.22 µM with U251 CNS. The TGI was 10.1 µM in the assay on IGROV1 ovarian and 28.7 µM with PC-3 prostate.
Consider `C=CCC1(CC)C(=O)NC(=O)NC1=O`, for which the TGI with HL-60(TB) leukemia, with MOLT-4 leukemia, with U251 CNS, with IGROV1 ovarian and in the assay on COLO 205 colon was more than 100 µM each time.
